Measured values reported in patent US20210395250A1, “NOVEL CRYSTAL OF (3S)-3-[2-(6-AMINO-2-FLUOROPYRIDIN-3-YL)-4-FLUORO-1H-IMIDAZOL-5-YL]-7-[5-CHLORO-2-(1H-TETRAZOL-1-YL)PHENYL]-2,3-DIHYDROINDOLIZIN-5(1H)-ONE” (priority 2018, published 2021).
Converted amounts (≈) assume the structure as drawn. Like-named read-outs stand apart in the source and are kept apart here.

How the values were obtained:
[1] = Evaluation of oral absorption after oral administration of suspensions to monkeys; details: for oral absorption rate (%): cynomolgus monkeys/male, fasted, 1 mg/kg oral suspension in 0.5% aqueous methyl cellulose, oral AUC / intravenous AUC (1 mg/kg) x 100
Method: The measurement of oral absorption was carried out under the following conditions.
Each of the suspensions was prepared with a 0.5% aqueous methyl cellulose solution at a concentration of 0.33 mg/mL (in terms of free base content). Each of the suspensions was administered to monkeys (cynomolgus monkeys/male), which had been fasted since the day before, in the stomach thereof forcibly with a sonde. The amount of administration was adjusted depending on the body weight of each of the monkeys so that the dosage amount became 1 mg/kg.
After the administration of the suspensions (liquid pharmaceuticals), at the timing of 0.25, 0.5, 1, 2, 4, 7 and 24 hours after the administration, blood (0.5 mL) was collected from the cephalic vein with a heparin-added syringe. The collected blood was centrifuged at 10000 G for 5 minutes to separate plasma from the blood. In the evaluation of the oral absorption of the test compounds, data obtained when the test compounds were administered intravenously at the same dose amounts (1 mg/kg) were employed. The oral absorption rate (%) was calculated by dividing an AUC (area under the blood concentration-time curve) value obtained in the oral administration by an AUC value obtained in the intravenous administration and then multiplying the resultant value by 100.
The whole volume of the solution was added to Oasis HLB μElution Plate through which acetonitrile (200 μL) and purified water (200 μL) had been passed, and was then sucked under reduced pressure. Purified water (200 μL) was added to the solution, and the resultant solution was washed by sucking under reduced pressure. Acetonitrile (200 μL) was added to the solution, the resultant solution was sucked under reduced pressure, and an eluate was collected in a 96-well plate. The eluate (10 μL) was added to a 0.1% aqueous formic acid solution/acetonitrile (2/1) solution (290 μL), and the resultant solution was stirred and was then analyzed by LC/MS/MS.
The analysis by LC/MS/MS was carried out under the following conditions.
Measurement device: API-5000 (manufactured by Applied Biosystems/MDS SCIEX) Analysis column: Cadenza CD-C18 (2.0 mm I.D.×100 mm, 3 μm) Flow rate: 0.4 mL/min. Components of mobile phase: a 0.1% aqueous formic acid solution/acetonitrile (0 minute: 65/35, 4.0 minutes: 65/35, 4.1 minutes: 10/90, 5.0 minutes: 10/90, 5.1 minutes: 65/35, 7.0 minutes: 65/35) Scan type: MRM (Multiple Reaction Monitoring)

[2] = Evaluation of solubility in JP 1st fluid and artificial intestinal juice (FaSSIF), HPLC; format: physicochemical; details: after 24 hours; for solubility at 24 h: 37 °C, thermodynamic from solid
Method: The measurement of solubility was carried out under the following conditions.
About 3 mg of each of the compounds of the present invention was weighed in a test tube, then a stirrer and 5 mL of each of an artificial intestinal juice (FaSSIF; Reference Document 1: Pharmaceutical Research, vol. 20, pp. 1674-1680, 2003; Reference Document 2: Biological & Pharmaceutical Bulletin, vol. 34, pp. 401-407, 2011) and JP 1st fluid which had been warmed to 37° C. were added to the test tube, and then the test tube was sealed hermetically. The test tube was installed in a solubility test device (Gilson, Quad-Z 215), and the solution was stirred at 37° C. and 700 rpm. After 0.25, 0.5, 1, 3, 6 and 24 hours, an aliquot of the solution in the test tube was collected. The collected solution was filtrated through a filter, and a filtrate was diluted two-folds with acetonitrile. A diluted solution of the artificial intestinal juice was centrifuged at 3000 rpm for 5 minutes, and a supernatant was used as a sample solution. A diluted solution of the JP 1st fluid was used as is as a sample solution. Solubility was calculated by a high-performance liquid chromatography method.
Column: Waters Xbridge ShieldRP18 (4.6 mm (inner diameter)×50 mm, 3.5 μm) Column temperature: 40° C. Component of mobile phase: 20 mM potassium dihydrogen phosphate (pH 3.0)/acetonitrile (0 minute: 70/30, 5 minutes: 25/75)
Flow rate: 1.0 mL/min Sample rack temperature: 15° C. Sample injection amount: 10 μL Measurement time: 5 minutes Retention time: 2.6 minutes

[3] = Evaluation of hygroscopicity: isothermal absorption curve measurement (DVS); format: physicochemical
Method: Physical Chemical Example 1: Evaluation of Hygroscopicity
An isothermal absorption curve measurement (DVS) was carried out under the following conditions.
Device: DVS Intrinsic, manufactured by SMS
Measurement temperature: 25° C.
Measurement range: relative humidity of 0 to 95%
Interval of measurement: relative humidity of 5%

[4] = artificial intestinal juice (FaSSIF), 37° C., 700 rpm
[5] = artificial intestinal juice (FaSSIF), 37° C.

Compound | hygroscopicity (in words) [3] | oral absorption rate (%) [1] [%] | Solubility, JP 1st fluid ([2]; JP 1st fluid, 37° C., 700 rpm) [μg/m] | Solubility, Artificial intestinal juice [2, 4] [μg/m] | solubility in the artificial intestinal juice [2, 5] [µg/mL] | other results
Nc1ccc(-c2nc(F)c([C@@H]3CCc4cc(-c5cc(Cl)ccc5-n5cnnn5)cc(=O)n43)[nH]2)c(F)n1 [Example 1(11), (3S)-3-[2-(6-amino-2-fluoro-3-pyridinyl)-4-fluoro-1H-imidazol-5-yl]-7-[5-chloro-2-(1H-tetrazol-1-yl)phenyl]-2,3-dihydro-5(1H)-indolizinone dihydrate] | high hygroscopicity | – | – | – | – | oral absorption rate (%) ([1]; dihydrate): 26%; oral absorption (in words) ([1]; monkeys, oral): poor oral absorption; solubility at 24 h ([2]; JP 1st fluid, simulated gastric fluid, JP 1st fluid, 700 rpm, read-out: Solubility, JP 1st fluid): 41 µg/mL; solubility at 24 h ([2]; JP 1st fluid, simulated gastric fluid, JP 1st fluid, read-out: solubility in the JP 1st fluid): 41 µg/mL; solubility at 24 h ([2]; artificial intestinal juice (FaSSIF), fassif, artificial intestinal juice (FaSSIF), 700 rpm, read-out: Solubility, Artificial intestinal juice): 47 µg/mL; solubility at 24 h ([2]; artificial intestinal juice (FaSSIF), fassif, artificial intestinal juice (FaSSIF), read-out: solubility in the artificial intestinal juice): 47 µg/mL
Nc1ccc(-c2nc(F)c([C@@H]3CCc4cc(-c5cc(Cl)ccc5-n5cnnn5)cc(=O)n43)[nH]2)c(F)n1 [Example 5, (3S)-3-[2-(6-Amino-2-fluoropyridin-3-yl)-4-fluoro-1H-imidazol-5-yl]-7-[5-chloro-2-(1H-tetrazol-1-yl)phenyl]-2,3-dihydroindolizin-5(1H)-one-3-hydroxybenzoic acid (1/1)] | – | ~100 | 75 | 60 | 60 (≈ 118 µM) | solubility in the JP 1st fluid ([2]; JP 1st fluid, 37° C.): 75 µg/mL (≈ 148 µM); weight change rate ([3]; DVS, 25° C., relative humidity of 0 to 95%): less than 1%
(3S)-3-[2-(6-Amino-2-fluoropyridin-3-yl)-4-fluoro-1H-imidazol-5-yl]-7-[5-chloro-2-(1H-tetrazol-1-yl)phenyl]-2,3-dihydroindolizin-5(1H)-one-3-hydroxybenzoic acid (1/1) [Example 5] | low hygroscopicity | – | – | – | – | –
(3S)-3-[2-(6-Amino-2-fluoropyridin-3-yl)-4-fluoro-1H-imidazol-5-yl]-7-[5-chloro-2-(1H-tetrazol-1-yl)phenyl]-2,3-dihydroindolizin-5(1H)-one-nicotinamide (2/1) [Example 4] | – | 44 | 77 | 60 | 60 | –
